Where “and” joins values, the source holds several entries; their conditions need not be identical. Equal entries are not always repeated. Calls of active or inactive are those of the source.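 Rule for the calls: active = every replicate of triplicate confirmation testing shows 50% or greater inhibition; inconclusive = one or more replicate tests show below 50% inhibition; inactive = every triplicate test shows below 50% inhibition.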

Serine/threonine-protein kinase PLK1 (Homo sapiens), sequence (P53350 whole entry, looked up): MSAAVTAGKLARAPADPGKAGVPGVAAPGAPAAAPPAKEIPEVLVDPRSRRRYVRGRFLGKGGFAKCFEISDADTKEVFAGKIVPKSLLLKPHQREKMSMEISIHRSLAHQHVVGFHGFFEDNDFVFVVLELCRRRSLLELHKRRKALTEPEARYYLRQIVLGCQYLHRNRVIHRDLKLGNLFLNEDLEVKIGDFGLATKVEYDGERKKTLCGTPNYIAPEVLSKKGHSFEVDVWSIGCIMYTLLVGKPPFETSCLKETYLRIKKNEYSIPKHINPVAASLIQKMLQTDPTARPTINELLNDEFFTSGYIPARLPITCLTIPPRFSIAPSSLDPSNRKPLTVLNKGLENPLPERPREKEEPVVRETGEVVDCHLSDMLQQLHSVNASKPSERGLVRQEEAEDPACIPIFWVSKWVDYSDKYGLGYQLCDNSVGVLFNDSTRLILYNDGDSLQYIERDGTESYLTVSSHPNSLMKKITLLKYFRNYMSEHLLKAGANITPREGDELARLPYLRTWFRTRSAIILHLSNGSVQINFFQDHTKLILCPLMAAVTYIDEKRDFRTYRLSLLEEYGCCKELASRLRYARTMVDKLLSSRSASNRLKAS

The assay has as its target Serine/threonine-protein kinase PLK1 (Homo sapiens) (UniProt P53350). The assay can be described thus: PLK1 kinase activity inhibitors, confirmation, biochemical, analogue series, repeat of primary screen (AID 1264). The conditions noted are these: recombinant PLK1 kinase, TR-FRET phosphopeptide binding; at 10 µM; stronger effect = higher value. (In general: Time-resolved FRET reads energy transfer from a long-lived donor to a nearby acceptor.)
Consider `CCOC(=O)c1ccc(NC(=O)c2c(NCc3ccccc3)[nH]c(=O)[nH]c2=O)cc1`, for which the inhibition is -44% (inactive). The value for `CCOC(=O)c1ccc(NS(=O)(=O)c2c(N)n(C)c(=O)n(C)c2=O)cc1` was -7.36% (inactive). With `CCC1=CC(c2ccccc2)n2ncnc2N1` (stereo unspecified) the figure was 27.4% (inactive); with `Cn1c(N)c(C(=O)Nc2ccccc2)c(=O)[nH]c1=O`, 8.78% (inactive).

For the molecule `O=C(Nc1ccccc1)c1c(O)[nH]c(=S)[nH]c1=O`, the inhibition was 14.3% (inactive). With `Cc1cccc(N/N=C/c2c(O)[nH]c(=S)[nH]c2=O)c1` the figure was -7.37% (inactive). With `CCOC(=O)c1cccc(NC(=O)c2c(O)[nH]c(=O)[nH]c2=O)c1` the figure was -17.6% (inactive); with `CCOC(=O)c1ccc(NC(=O)c2c(O)[nH]c(=O)[nH]c2=O)cc1`, -4.9% (inactive).

`C1=C(c2ccccc2)Nc2ncnn2C1`: the inhibition is 12.8% (inactive). For the molecule `CC1=CC(c2ccccc2)n2nc(N)nc2N1` (stereo unspecified), the inhibition is -13.7% (inactive).

For the molecule `O=C(Nc1ccccc1)c1c(O)[nH]c(=O)[nH]c1=O`, the inhibition is 0.179% (inactive).

Turning to `CCOC(=O)c1ccc(NC(=O)c2c(N)n(Cc3ccccc3)c(=O)[nH]c2=O)cc1`, the inhibition is -23.9% (inactive). In the case of `Cc1ccc(C2=CC(c3ccccc3)n3ncnc3N2)c(C)c1` (stereo unspecified), the inhibition was -6.91% (inactive).

As to `CCOC(=O)c1ccccc1NC(=O)c1c(N)n(C)c(=O)[nH]c1=O`, the inhibition is -3.12% (inactive).

As for `CCOC(=O)c1ccccc1NC(=O)c1c(O)[nH]c(=S)[nH]c1=O`, the inhibition is 19.1% (inactive). On to `CCCC(=O)NC(C)c1nc(-c2ccc(C)cc2)no1` (stereo unspecified), for which the inhibition is -6.32% (inactive). In the case of `CCC(=O)NCCCc1nc(-c2ccccc2)no1`, the inhibition was -3.38% (inactive). The value for `CCCCOC(=O)c1ccc(NC(=O)c2c(N)n(C)c(=O)[nH]c2=O)cc1` was -5.01% (inactive). Regarding `CCOc1ccc(NC(=O)c2c(N)n(C)c(=O)[nH]c2=O)cc1`, the inhibition was -9.99% (inactive). As for `CCOC(=O)CCCCCNC(=O)c1c(O)[nH]c(=O)[nH]c1=O`, the inhibition is -9.36% (inactive). On to `CCOC(=O)c1ccccc1NC(=O)c1c(O)[nH]c(=O)[nH]c1=O`, for which the inhibition is -7.12% (inactive). With `Cc1cc(=O)n2[nH]cnc2n1` the figure was 19.1% (inactive); with `CC(C)C(=O)NCCc1nc(-c2ccc(Cl)cc2)no1`, -14.7% (inactive).

Consider `CC(C)(C)C(=O)NCCc1nc(-c2ccccc2)no1`, for which the inhibition is 0.116% (inactive).

With `COc1ccc(C2C=C(C)Nc3ncnn32)cc1` (stereo unspecified), the inhibition was 5.53% (inactive). The value for `CCOc1ccc(NC(=O)c2c(O)[nH]c(=O)[nH]c2=O)cc1` was 4.03% (inactive); that for `COc1ccc(C2C=C(c3ccccc3)Nc3ncnn32)cc1` (stereo unspecified) was -8.01% (inactive). With `CCOC(=O)c1ccc(NC(=O)c2c(N)n(C)c(=O)n(C)c2=O)cc1` the figure was -20.8% (inactive). With `CCOC(=O)c1cccc(NC(=O)c2c(NCc3ccccc3)[nH]c(=O)[nH]c2=O)c1`, the inhibition was -25.1% (inactive). With `C1=C(c2ccccc2)Nc2ncnn2C1c1ccccc1` (stereo unspecified) the figure was -5.72% (inactive) and -12.8% (inactive); with `CC(C)C(=O)NCCc1nc(-c2ccccc2)no1`, -10.1% (inactive). Turning to `CCOC(=O)c1ccc(NC(=O)c2c(N)n(C)c(=O)[nH]c2=O)cc1`, the inhibition is -19.2% (inactive). The value for `O=C(NCCc1nc(-c2ccccc2)no1)c1ccccc1` was -5.02% (inactive); that for `O=C(NCCc1nc(-c2ccccc2Cl)no1)c1ccccc1` was -12.8% (inactive). Consider `CC(C)(C)c1ccc(C2=CC(c3ccccc3)n3ncnc3N2)cc1` (stereo unspecified), for which the inhibition was -7.88% (inactive).

As to `CCC(=O)NCCc1nc(-c2ccccc2)no1`, the inhibition was -12.8% (inactive). The value for `CCOC(=O)c1cccc(NC(=O)c2ccc(F)cc2F)c1` was -1.61% (inactive); that for `FC(F)(F)c1ccccc1C1=CC(c2ccccc2)n2ncnc2N1` (stereo unspecified) was -2.08% (inactive); that for `Cc1cc(C)c(C2=CC(c3ccccc3)n3ncnc3N2)cc1C` (stereo unspecified) was -3.17% (inactive). For the molecule `Cn1cccc1C1C=C(c2ccc(C(C)(C)C)cc2)Nc2ncnn21` (stereo unspecified), the inhibition is -5.07% (inactive). With `O=C(NCCc1nc(-c2ccccc2Cl)no1)C1CCCCC1` the figure was -35.6% (inactive); with `O=C(NCCc1nc(-c2ccccc2)no1)c1ccco1`, -16.1% (inactive). The value for `Cc1ccc(C2=CC(c3ccccc3)n3ncnc3N2)cc1` (stereo unspecified) was -16.9% (inactive); that for `C/C(=N\NC(=O)c1ccncc1)c1c(O)[nH]c(=O)[nH]c1=O` was -1.95% (inactive). With `CCOC(=O)c1cccc(NC(=O)c2c(N)n(C)c(=O)[nH]c2=O)c1` the figure was -1.45% (inactive); with `CCOc1ccc(C2=CC(c3ccccc3)n3ncnc3N2)cc1` (stereo unspecified), -6.38% (inactive); with `CCCCOC(=O)c1ccc(NC(=O)c2ccc(F)cc2F)cc1`, -1.8% (inactive). With `CC(C)(C)c1ccc(C2=CC(c3ccccc3F)n3ncnc3N2)cc1` (stereo unspecified), the inhibition was -3.46% (inactive). The value for `CCCCOC(=O)c1ccc(NC(=O)c2c(O)[nH]c(=O)[nH]c2=O)cc1` was 13.1% (inactive); that for `CCOC(=O)c1ccc(NC(=O)c2ccc(F)cc2F)cc1` was 4.42% (inactive); that for `Cn1c(N)c(S(=O)(=O)NCc2ccccc2)c(=O)n(C)c1=O` was -15.5% (inactive). The value for `Cc1ccc(C2=CC(c3ccc(C)cc3)n3ncnc3N2)cc1` (stereo unspecified) was -1.39% (inactive).

Consider `CCOC(=O)CCCCCNC(=O)c1ccc(F)cc1F`, for which the inhibition was -1.76% (inactive).

With `O=C(Nc1ccccc1)c1ccc(F)cc1F`, the inhibition was 24.9% (inactive).

Regarding `CCOC(=O)c1ccccc1NC(=O)c1ccc(F)cc1F`, the inhibition is -4.35% (inactive).

Turning to `Cc1ccc(NC(=O)c2ccc(F)cc2F)cc1`, the inhibition is 0.531% (inactive).

As to `CC(=O)NCCc1nc(-c2ccc(Cl)cc2)no1`, the inhibition is 0.952% (inactive). Take `CC(C)C(=O)NCCc1nc(-c2ccccc2Cl)no1`: the inhibition is -5.05% (inactive). For `CCOc1ccc(NC(=O)c2ccc(F)cc2F)cc1`, the inhibition is -2.77% (inactive). With `Cc1ccc(C2C=C(c3ccccc3)Nc3ncnn32)cc1` (stereo unspecified) the figure was -8.59% (inactive); with `CC1=CC(c2ccccc2)n2ncnc2N1` (stereo unspecified), 26% (inactive).

A word on the inhibition: it is the change of the read-out against control, counted positive when it falls.

The values are drawn from PubChem BioAssay AID1264 (University of Pittsburgh Molecular Library Screening Center, 2008).
